Reference: patent US6365175B1 (Unilever Patent Holdings, priority 1998, dated 2002)
Entries after “also recorded” stand apart in the source; their conditions may differ.

Experiments:
decorin = test: Dot blot assay for decorin protein in dermal fibroblast conditioned medium; type: cell-based, human; details: for Decorin (% of control): fibroblasts, mean ± SD; for decorin levels in fibroblasts: single agent, in words
Description: Primary human foreskin fibroblasts at passage 2 (P2) were seeded into 12-well plates at 10000 cells/cm^2 and maintained for 24 hours in an atmosphere of 5% carbon dioxide and 4% oxygen in Dulbeccos Modified Eagles Medium (DMEM) supplemented with 10% foetal calf serum. After this time the cells were washed with serum free DMEM and then incubated in fresh serum free DMEM for a further 60 hours. The fibroblast monolayers were then washed again with serum free DMEM. […] This fibroblast conditioned medium was either analysed immediatedly or snap frozen in liquid nitrogen and stored at −70° C. for future analysis. The cells were then counted and data from the dot-blot analysis subsequently standardised to cell number.
Samples of conditioned medium from dermal fibroblasts treated with vehicle (as a control) or test reagents were supplemented with 20 mM dithiothreitol (1:10 dilution of 200 mM stock solution) and 0.1% sodium dodecylsulphate (1:100 dilution of 10% stock solution), mixed well and then incubated at 75° C. for 2 minutes. A standard for the assay was generated by serial dilution of neat fibroblast conditioned medium from fibroblasts seeded at 10000 cells/cm^2 in a 175 cm^2 flask and maintained in serum free DMEM as described above. Assay samples were subsequently applied in triplicate to a prewetted sheet of Immobilon-P transfer membrane using the 96-well Bio-Dot Apparatus from Bio-Rad as described in the manufacturers guidelines. Approximately 200 μl of medium was applied per well. The medium was allowed to filter through the membrane under gravity (30 minutes) after which the membrane was washed twice with PBS (200 μl). These PBS washes were allowed to filter through the membrane under gravity (2×15 minutes). The Bio-Dot apparatus was then attached to a vacuum manifold and a third and final PBS wash carried out under suction. The apparatus was disassembled, the membrane removed and quickly cut as required before being placed in blocking buffer overnight at 4° C. Membranes prepared for decorin analysis were blocked with 3% (w/v) bovine serum albumin (BSA)/ 0.1% (v/v) Tween 20 in phosphate buffered saline (PBS), whilst those for procollagen-I analysis were blocked with 5% (w/v) non fat dried milk powder/0.05% Tween 20 in PBS. The following day, the membranes were probed with 1:10000 dilution of primary antibodies to human decorin (rabbit polyclonal; Biogenesis) for 2 hours at room temperature. The membranes were subsequently washed with TBS/0.05% Tween 20 (3×5 minutes) and then incubated with 1:1000 dilution of ^125I-conjugated anti-rat or anti-rabbit F(ab′)2 fragments (Amersham) as required for 1 hour at room temperature. Following this the Immobilon strips were again washed with TBS/Tween 20 (3×5 minutes) before being allowed to dry in air at room temperature. The dried membranes were wrapped in cellophane and exposed to a Molecular Dynamics storage phosphor screen for 16-18 hours. At the end of this time the exposed screen was scanned by a phosphorimager (Molecular Dynamics Phosphorimager SF) using ImageQuant™ software. Dot intensity was assessed by computer-assisted image analysis using the quantification tools in ImageQuant™, standardised to cell number and the effects of various test reagents on decorin and procollagen-I synthesis were determined relative to a vehicle treated control value of 100 arbitrary units.

[1] = test system: basal PGE2 levels in keratinocytes; test: Keratinocyte PGE2 assay; type: cell-based; details: 0.1 μM and 1 μM, 24 h
Text: The medium was then removed and assayed for the pro-inflammatory PGE2 content by Enzyme-linked immunoassay.

[2] = test system: intracellular adhesion molecules (ICAM); test: ICAM-1 assay in fibroblasts, basal and PMA-induced; type: cell-based, human; details: FIG. 2
Description: (§1) It is emphasized that the anti-inflammatory effects were determined by in vitro tests wherein the production of intracellular adhesion molecules (=ICAM) and Prostaglandin E2 (=PGE2) production by the human skin fibroblasts is measured after being induced by the inflammatory modulus phorbyl myristyl acetate (PMA). Effects on basal PGE2 levels in keratinocytes are also measured. A reduction of the levels of ICAM and PGE2 is indicative for the anti-inflammatory effect.
Primary human foreskin fibroblasts at passage 2 (P2) were seeded into 96-well plates at 10000 cells/well and maintained for 24 hours in an atmosphere of 5% carbon dioxide in Dulbeccos Modified Eagles Medium (DMEM) supplemented with 10% foetal calf serum. […] Phorbal myristate acetate (PMA) in ethanol/cell media ([…]) was added to the media and the cells incubated for a futher 24 hours. […] The fibroblasts/media were then analysed as described below immediately or snap frozen in liquid nitrogen and stored at −70° C. for future analysis. The cells were then counted to ensure no effect on cell number.
Media were discarded and cells washed with Dulbecco PBS. […] The soluble ICAM-1 was assessed with commercially available immunoenzymometric assay kit (R&D Systems). Concentrations of ICAM-1 in the samples were determined based on parallelly running standard curve.

[3] = test system: intracellular adhesion molecules (ICAM); test: Glutathione (GSH) depletion model in fibroblasts (BSO and PMA), ICAM; type: cell-based, human; details: BSO and PMA treated fibroblasts, FIG. 3
Description: Primary human foreskin fibroblasts at passage 2 (P2) were seeded into 96-well plates at 10000 cells/well and maintained for 24 hours in an atmosphere of 5% carbon dioxide in Dulbeccos Modified Eagles Medium (DMEM) supplemented with 10% foetal calf serum. […] Phorbal myristate acetate (PMA) in ethanol/cell media ([…]) was added to the media and the cells incubated for a futher 24 hours. PMA represents an external stressor which induces oxidative stress and inflammatory responses in cells. The fibroblasts/media were then analysed as described below immediately or snap frozen in liquid nitrogen and stored at −70° C. for future analysis. The cells were then counted to ensure no effect on cell number.
Media were discarded and cells washed with Dulbecco PBS. To the washed cells, 150 μl 0.1% Triton X-100 (Sigma) was added for 3 minutes to extract ICAM from cell membrane. The extracts were transferred to Eppendoff centrifuge tubes and centrifuged at 1000 g for 2 min to remove cell debris. A volume of 100 μl supernatant was used for ICAM assay. The soluble ICAM-1 was assessed with commercially available immunoenzymometric assay kit (R&D Systems). Concentrations of ICAM-1 in the samples were determined based on parallelly running standard curve.
L-Buthionine sulfoximine (BSO, Sigma), a specific inhibitor of γ-glutamylcysteine synthetase, was used to deplete intracellular GSH levels. This depletion model is based on the natural degradation of GSH while synthesis is inhibited. BSO is added to the fibroblast cell media after 24 hours (0.25 mM), this is predissolved in DMSO (DMSO, final concentration <1%). In addition, where stated, the antioxidants Epigallocatechingallate (ECGC) and Quercetin were also added to the media after 24 h. The former was dissolved directly in the media, quercetin was initially dissolved in ethanol, this was then diluted 500 fold into the media.

[4] = test system: Prostaglandin E2 (PGE2) production; test: PMA-induced PGE2 production, fibroblast cell assay; type: cell-based, human; details: FIG. 1
Description: as §1
Primary human foreskin fibroblasts at passage 2 (P2) were seeded into 96-well plates at 10000 cells/well and maintained for 24 hours in an atmosphere of 5% carbon dioxide in Dulbeccos Modified Eagles Medium (DMEM) supplemented with 10% foetal calf serum. […] The fibroblasts/media were then analysed as described below immediately or snap frozen in liquid nitrogen and stored at −70° C. for future analysis. The cells were then counted to ensure no effect on cell number.
Volumes of 50 μl culture medium were taken for PGE2 assay after gently shaking the culture plate. PGE2 levels in the medium were determined with a Biotrak PGE2 immunoassay kit (Amersham, UK). The assay is based on the competition between unlabelled PGE2 in the sample and a fixed quantity of horseradish peroxidase labelled PGE2 for a limited amount of fixed PGE2 specific antibody. […]

Compound | Decorin (% of control) (decorin; 1 μg / ml) | Decorin (% of control) (decorin; 2.5 μg / ml) | Decorin (% of control) (decorin; 5 μg / ml) | decorin levels in fibroblasts (decorin) | ICAM response ([3]; antioxidant alone 10 μM) | other results
O=C(O)c1cc(O)c(O)c(O)c1 [Gallic acid] | 136.9 ± 4.2 % of control | 163.4 ± 6.5 % of control | 161.8 ± 6.6 % of control | can also exert this effect |  | 
CCCCCCCCCCC/C=C\CCCCC(=O)O [Petroselinic acid] |  |  |  | boost decorin levels |  | basal levels of secreted PGE2 ([1]; FIG. 5): significantly reduce; basal levels of secreted PGE2 ([1]; FIG. 5, listed as petroselinic acid): reduced the basal levels; production of ICAM / ICAM response ([2]; PMA-stimulated fibroblasts pre-incubated with 0.1, 1.0, 10 and 100 μM): reduction in ICAM; also recorded: significant decrease; production of ICAM ([2]; basal condition (control), fibroblasts, 100 μM): reduction in ICAM; ICAM response ([3]; petroselinic acid alone 0.01 μM): no effect; PGE2 response ([4]; PMA treated cells pre-incubated with 0.1, 1.0, 10 and 100 μM): significant decrease; inflammatory response as measured by PGE2 production ([4]; PMA-challenged fibroblasts, 0.1 μM): dramatically reduces
O=c1c(O)c(-c2ccc(O)c(O)c2)oc2cc(O)cc(O)c12 [Quercetin] |  |  |  |  | decrease the ICAM response | 
O=C(O[C@@H]1Cc2c(O)cc(O)cc2O[C@@H]1c1cc(O)c(O)c(O)c1)c1cc(O)c(O)c(O)c1 [EGCG, Epigallocatechingallate] | 167.5 ± 11.8 % of control | 188.6 ± 9.4 % of control | 258.2 ± 6.1 % of control | can also exert this effect | decrease the ICAM response | 
O=c1c(-c2ccc(O)cc2)coc2cc(O)cc(O)c12 [genistein] |  |  |  | can also exert this effect |  | 
O=c1c(-c2ccc(O)cc2)coc2cc(O)ccc12 [diadzein] |  |  |  | can also exert this effect |  | 
